Where “and” joins values, the source holds several entries; their conditions need not be identical. Equal entries are not always repeated.
Assay: molar heat capacity at constant pressure
Details: 101.33 kPa, Crystal, PPMS instrument (Quantum Design)

O=P([O-])([O-])[O-].[La+3] [lanthanum orthophosphate]
Details | molar heat capacity at constant pressure
2.046 K | 0.00182 J/K/mol
2.066 K | 0.00139 J/K/mol
2.067 K | 0.0014 J/K/mol
2.068 K | 0.00141 J/K/mol
2.083 K | 0.00123 J/K/mol
2.246 K | 0.0017 J/K/mol
2.247 K | 0.0017 J/K/mol and 0.00172 J/K/mol
2.415 K | 0.00201 J/K/mol
2.429 K | 0.00212 J/K/mol
2.43 K | 0.00213 J/K/mol
2.616 K | 0.00265 J/K/mol
2.617 K | 0.00266 J/K/mol
2.618 K | 0.00266 J/K/mol
2.763 K | 0.0031 J/K/mol
2.802 K | 0.0034 J/K/mol
2.803 K | 0.00342 J/K/mol
2.805 K | 0.00339 J/K/mol
2.989 K | 0.00467 J/K/mol
2.992 K | 0.00476 J/K/mol
2.994 K | 0.00473 J/K/mol
3 K | 0.0053 J/K/mol
3.115 K | 0.00524 J/K/mol
3.19 K | 0.00601 J/K/mol
3.191 K | 0.00593 J/K/mol and 0.00603 J/K/mol
3.383 K | 0.00728 J/K/mol
3.385 K | 0.00731 J/K/mol
3.386 K | 0.0073 J/K/mol
3.473 K | 0.00765 J/K/mol
3.505 K | 0.00809 J/K/mol
3.578 K | 0.00852 J/K/mol
3.58 K | 0.00853 J/K/mol and 0.00852 J/K/mol
3.772 K | 0.00994 J/K/mol
3.775 K | 0.00998 J/K/mol
3.778 K | 0.00998 J/K/mol
3.839 K | 0.01034 J/K/mol
3.969 K | 0.01147 J/K/mol
3.973 K | 0.01149 J/K/mol
3.976 K | 0.01146 J/K/mol
4.008 K | 0.01178 J/K/mol
4.168 K | 0.0131 J/K/mol
4.172 K | 0.01315 J/K/mol
4.174 K | 0.01314 J/K/mol
4.207 K | 0.01339 J/K/mol
4.368 K | 0.01481 J/K/mol
4.371 K | 0.01487 J/K/mol
4.372 K | 0.01494 J/K/mol
4.518 K | 0.01632 J/K/mol
4.565 K | 0.01686 J/K/mol
4.568 K | 0.01687 J/K/mol
4.569 K | 0.0169 J/K/mol
4.576 K | 0.01697 J/K/mol
4.763 K | 0.01882 J/K/mol
4.765 K | 0.01903 J/K/mol
4.768 K | 0.01911 J/K/mol
4.946 K | 0.02113 J/K/mol
4.961 K | 0.02146 J/K/mol
4.965 K | 0.02154 J/K/mol
4.967 K | 0.02153 J/K/mol
5.031 K | 0.02216 J/K/mol
5.166 K | 0.02384 J/K/mol
5.173 K | 0.02394 J/K/mol
5.174 K | 0.02375 J/K/mol
5.323 K | 0.02601 J/K/mol
5.367 K | 0.0265 J/K/mol
5.369 K | 0.02666 J/K/mol
5.37 K | 0.02686 J/K/mol
5.546 K | 0.02914 J/K/mol
5.565 K | 0.02951 J/K/mol
5.574 K | 0.02974 J/K/mol and 0.02916 J/K/mol
5.695 K | 0.03139 J/K/mol
5.77 K | 0.03276 J/K/mol
5.771 K | 0.03277 J/K/mol
5.774 K | 0.03288 J/K/mol
5.965 K | 0.03647 J/K/mol
5.967 K | 0.03583 J/K/mol
5.974 K | 0.03623 J/K/mol
6.057 K | 0.03765 J/K/mol
6.065 K | 0.03776 J/K/mol
6.165 K | 0.03972 J/K/mol
6.17 K | 0.03972 J/K/mol
6.171 K | 0.03961 J/K/mol
6.367 K | 0.04348 J/K/mol
6.37 K | 0.04345 J/K/mol
6.373 K | 0.04366 J/K/mol
6.438 K | 0.04486 J/K/mol
6.567 K | 0.04741 J/K/mol
6.572 K | 0.04748 J/K/mol
6.574 K | 0.04752 J/K/mol and 0.04753 J/K/mol
6.768 K | 0.05148 J/K/mol
6.773 K | 0.05174 J/K/mol
6.774 K | 0.05167 J/K/mol
6.812 K | 0.05274 J/K/mol
6.968 K | 0.0563 J/K/mol
6.973 K | 0.0564 J/K/mol
6.976 K | 0.05661 J/K/mol
7.087 K | 0.05926 J/K/mol
7.169 K | 0.06123 J/K/mol
7.175 K | 0.06142 J/K/mol
7.176 K | 0.06139 J/K/mol
7.188 K | 0.06178 J/K/mol
7.371 K | 0.06581 J/K/mol
7.377 K | 0.06689 J/K/mol
7.381 K | 0.06684 J/K/mol
7.56 K | 0.07178 J/K/mol
7.57 K | 0.07164 J/K/mol
7.575 K | 0.072 J/K/mol
7.579 K | 0.07223 J/K/mol
7.604 K | 0.07273 J/K/mol
7.774 K | 0.07756 J/K/mol
7.778 K | 0.07802 J/K/mol
7.779 K | 0.07794 J/K/mol
7.937 K | 0.08278 J/K/mol
7.975 K | 0.08393 J/K/mol
7.98 K | 0.08397 J/K/mol
7.983 K | 0.08418 J/K/mol
8.119 K | 0.08872 J/K/mol
8.176 K | 0.09007 J/K/mol
8.182 K | 0.09043 J/K/mol
8.184 K | 0.09022 J/K/mol
8.313 K | 0.09473 J/K/mol
8.378 K | 0.09678 J/K/mol
8.383 K | 0.09686 J/K/mol
8.385 K | 0.09715 J/K/mol
8.584 K | 0.1041 J/K/mol
8.589 K | 0.1043 J/K/mol
8.592 K | 0.1046 J/K/mol
8.642 K | 0.1065 J/K/mol
8.696 K | 0.1085 J/K/mol
8.785 K | 0.1119 J/K/mol
8.792 K | 0.1125 J/K/mol
8.794 K | 0.1122 J/K/mol
8.987 K | 0.1198 J/K/mol
8.993 K | 0.1201 J/K/mol
8.996 K | 0.1202 J/K/mol
9.07 K | 0.1232 J/K/mol
9.158 K | 0.127 J/K/mol
9.188 K | 0.1284 J/K/mol
9.196 K | 0.131 J/K/mol and 0.1286 J/K/mol
9.198 K | 0.1286 J/K/mol
9.393 K | 0.1371 J/K/mol
9.398 K | 0.1378 J/K/mol
9.4 K | 0.1349 J/K/mol
9.447 K | 0.1398 J/K/mol
9.586 K | 0.1462 J/K/mol
9.598 K | 0.1469 J/K/mol
9.602 K | 0.1471 J/K/mol
9.675 K | 0.1505 J/K/mol
9.792 K | 0.1565 J/K/mol
9.8 K | 0.1568 J/K/mol
9.805 K | 0.157 J/K/mol
9.822 K | 0.1578 J/K/mol
